The source of these data is PubChem BioAssay (NCI).

Test systems include MDA-N; XF 498 CNS; SNB-78 CNS; LXFL 529 NSCLC; KM20L2 colon; DMS 114 small cell lung; DMS 273 small cell lung; RXF-631 renal.
Common to all, as to assay: NCI-60 cell line screen, 48 h

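Following 48 hours of exposure in 96-well plates, responses at five concentrations were used to interpolate endpoints linearly. The concentration for 50% growth inhibition is given as GI50. TGI is the concentration that stops growth completely.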 Bounds are passed on as bounds.

Molecule `C/C=C(\C)c1cc(=O)c2c(C)cc3c(c2o1)C(=O)c1c(O)c(C2CC(C)(N(C)C)C(OC(C)=O)C(C)O2)cc(C2CC(N(C)C)C(O)C(C)O2)c1C3=O` (configuration not stated) registered a TGI with MDA-N of 4.83 µM.
`COC(COC(N)=O)C1=C(N2CC2)C(=O)C(C)=C(N2CC2)C1=O` (configuration not stated): the TGI in the test with XF 498 CNS came out at 0.415 µM; in the test on SNB-78 CNS, 8.44 µM; in the test on LXFL 529 NSCLC, 0.672 µM; with KM20L2 colon it was 0.525 µM; with DMS 114 small cell lung, 0.38 µM; in the test on MDA-N it was 0.269 µM. This molecule also came in with a TGI with DMS 273 small cell lung of 0.0752 µM.
On to `CCc1nc(N)nc(N)c1-c1ccc(Cl)c([N+](=O)[O-])c1`, for which the TGI with MDA-N was over 100 µM.
Take `CC(=O)Nc1ccc(/C=C/C(=O)c2sc(-c3cccnc3)nc2C)cc1`: the TGI in the test with SNB-78 CNS, in the test on KM20L2 colon, with DMS 114 small cell lung and with DMS 273 small cell lung was over 100 µM in each case.
`C=C(C)[C@H]1CC[C@@]2(C)C(C1)[C@H](C)CC[C@@H]2O` (some centres not stated): the TGI in the test on XF 498 CNS, in the test on SNB-78 CNS, in the test on LXFL 529 NSCLC, in the test on KM20L2 colon, with DMS 114 small cell lung and in the test with RXF-631 renal was over 100 µM throughout. Also, in the test on DMS 273 small cell lung, the TGI is over 100 µM.
As for `COC1CCC(OS(C)(=O)=O)C(CO)O1` (configuration not stated), the TGI with XF 498 CNS, in the test with LXFL 529 NSCLC and in the test with KM20L2 colon was over 100 µM each time.
Consider `CCN(CC)CCCNc1nccc2c(C)c3c(cc12)c1cnccc1n3C`, for which the TGI in the test on XF 498 CNS came to 0.923 µM; in the test on SNB-78 CNS it was 2.76 µM; with KM20L2 colon, 1.93 µM; with DMS 114 small cell lung it was 0.463 µM; in the test with DMS 273 small cell lung, 0.181 µM.
For the molecule `COc1cc2cc(OC(C)=O)c3cc4c(cc3c2c(OC)c1OC)OCO4`, the TGI with XF 498 CNS, in the test on SNB-78 CNS, in the test on LXFL 529 NSCLC, in the test with KM20L2 colon, in the test with DMS 114 small cell lung and in the test on RXF-631 renal was over 100 µM throughout. For the same molecule, in the test on DMS 273 small cell lung, the TGI was over 100 µM.
With `O=C1[C@H]2ON(c3ccccc3)C(c3ccc([N+](=O)[O-])cc3)[C@H]2C(=O)N1c1ccc(Cc2ccc(N3C(=O)[C@@H]4ON(c5ccccc5)C(c5ccc([N+](=O)[O-])cc5)[C@@H]4C3=O)cc2)cc1` (some centres not stated), the TGI with SNB-78 CNS, in the test on LXFL 529 NSCLC, with KM20L2 colon, with DMS 114 small cell lung, with RXF-631 renal and in the test on DMS 273 small cell lung was over 100 µM throughout.
As to `COc1ccc(Nc2nc3cc(N)cc(N)c3nc2-c2ccccc2)cc1`, in the test on MDA-N, the GI50 is 21.6 µM and the TGI came out at 36 µM.
`COC(=O)[C@@H]1c2cc3c(c(O)c2[C@@H](OC2OC(C)C(OC)C(C)(OC)C2OC)C[C@]1(C)O)C(=O)c1c(O)cc2c(c1C3=O)O[C@H]1O[C@]2(C)[C@H](O)[C@@H](N(C)C)[C@@H]1O` (some centres not stated): the TGI with SNB-78 CNS is 0.0762 µM; in the test with LXFL 529 NSCLC, 1.28 µM; in the test on DMS 114 small cell lung it was 0.00521 µM; in the test on MDA-N, 0.179 µM; in the test on DMS 273 small cell lung, 0.0282 µM. The GI50 with KM20L2 colon is 0.0127 µM.
With `C=CSCCC(N)C(=O)O` (configuration not stated), the TGI in the test with XF 498 CNS, in the test on SNB-78 CNS, in the test with LXFL 529 NSCLC, in the test on KM20L2 colon, with DMS 114 small cell lung and in the test with RXF-631 renal was over 100 µM in each case. This molecule also registered a TGI in the test with DMS 273 small cell lung of over 100 µM.
`CN(Cc1ccccc1)Cn1ccnc1`: the TGI in the test on MDA-N was over 100 µM.
In the test on MDA-N, `O=C(O)CSc1n[nH]c(=O)[nH]c1=O` displayed a TGI of over 100 µM.
Take `CC1=N/C(=C/c2ccc3c(c2)OCO3)C(=O)O1`: the TGI in the test with XF 498 CNS, in the test on SNB-78 CNS, in the test on LXFL 529 NSCLC, in the test on KM20L2 colon, in the test with DMS 114 small cell lung and in the test on RXF-631 renal was over 100 µM in each case. This molecule also displayed a TGI in the test with DMS 273 small cell lung of over 100 µM.
As for `C=CCNC(=O)NCCCCC(NC(C)=O)C(=O)NCc1ccccc1` (configuration not stated), the TGI in the test on XF 498 CNS, with LXFL 529 NSCLC, with KM20L2 colon, in the test with DMS 114 small cell lung and with DMS 273 small cell lung was over 100 µM in each case.
For the molecule `Oc1ccc(C=Nc2ccccc2O)cc1`, the TGI in the test on MDA-N stood at 33.8 µM.
Consider `O=C(C(=O)c1cc2ccccc2[nH]1)c1cc2ccccc2[nH]1`, for which the TGI in the test with XF 498 CNS was 336 µM; with SNB-78 CNS, over 347 µM; in the test on LXFL 529 NSCLC, over 347 µM; with KM20L2 colon it was over 347 µM; in the test with DMS 114 small cell lung, over 347 µM; in the test with RXF-631 renal, over 347 µM. In the test on DMS 273 small cell lung, this molecule yielded a TGI of over 347 µM.
With `Cc1cnc2ccc(C)c([N+](=O)[O-])c2c1NCCCN(C)C`, the TGI in the test on XF 498 CNS, in the test with SNB-78 CNS, in the test with KM20L2 colon, in the test with DMS 114 small cell lung and in the test with DMS 273 small cell lung was over 100 µM each time.
`C=C(CCCCC)CN1CCCC1C(C)=O` (configuration not stated): the TGI in the test on XF 498 CNS was 41.7 µM; with SNB-78 CNS, over 76.6 µM; in the test with LXFL 529 NSCLC it was over 100 µM; with KM20L2 colon it was over 100 µM; with DMS 114 small cell lung, 42.8 µM; in the test on DMS 273 small cell lung, 53.1 µM.
In the case of `NCCSSCc1ccccc1CSSCCN`, the TGI in the test with XF 498 CNS, with SNB-78 CNS, in the test with LXFL 529 NSCLC, in the test with KM20L2 colon, in the test on DMS 114 small cell lung and in the test on RXF-631 renal was over 100 µM throughout. Besides, the TGI in the test with DMS 273 small cell lung was over 100 µM.
For the molecule `COc1ccc(Cc2c3cc(O)c(=O)cc-3ccn2C)cc1`, the TGI in the test on XF 498 CNS was over 100 µM; in the test with SNB-78 CNS it was over 100 µM; with KM20L2 colon, over 100 µM; in the test with DMS 114 small cell lung, 62.4 µM; in the test on RXF-631 renal, over 100 µM; in the test with DMS 273 small cell lung, over 100 µM.
